This is an account of results in patent publication US9884839B2, “Inhibitors of 17Beta-hydroxysteroid dehydrogenases type 1 and type 2” (ElexoPharm GmbH, priority 2014, dated 2018).

As usually defined, the IC50 is the midpoint of a concentration-inhibition curve. By inhibition is commonly meant the percentage by which the read-out fell short of the control. The half-life is the time in which the quantity being followed falls by half. High values mean slow loss, low ones fast loss.

Data set [1] addresses T1, human 17β-HSD1 (Homo sapiens, UniProt P14061).
T1 construct: For the partial purification of 17β-HSD1, the cytosolic fraction was precipitated with ammonium sulfate; from tissue; host or cells: human placenta, cytosolic fraction, ammonium sulfate precipitate
T1 sequence (P14061 1-328): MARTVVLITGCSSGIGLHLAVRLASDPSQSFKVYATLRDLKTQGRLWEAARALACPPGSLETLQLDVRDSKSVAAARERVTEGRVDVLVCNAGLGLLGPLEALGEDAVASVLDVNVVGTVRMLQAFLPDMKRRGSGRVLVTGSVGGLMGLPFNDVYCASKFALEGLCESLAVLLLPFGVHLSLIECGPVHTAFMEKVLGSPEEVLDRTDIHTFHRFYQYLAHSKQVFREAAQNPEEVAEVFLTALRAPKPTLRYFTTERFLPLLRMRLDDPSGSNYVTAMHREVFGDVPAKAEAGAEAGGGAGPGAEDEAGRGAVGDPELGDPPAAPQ
Kind of data set: Inhibition of human 17β-HSD1 (conversion of [3H]-E1 to E2, HPLC radioflow detection). The format is biochemical. The following applies: read-out: IC50 [nM] h17β-HSD1.

Data set [2] addresses T2, human 17β-HSD2 (Homo sapiens, UniProt P37059).
T2 construct: 17β-HSD2 was obtained from the microsomal fraction; from tissue; host or cells: human placenta, microsomal fraction
T2 sequence (P37059 1-387): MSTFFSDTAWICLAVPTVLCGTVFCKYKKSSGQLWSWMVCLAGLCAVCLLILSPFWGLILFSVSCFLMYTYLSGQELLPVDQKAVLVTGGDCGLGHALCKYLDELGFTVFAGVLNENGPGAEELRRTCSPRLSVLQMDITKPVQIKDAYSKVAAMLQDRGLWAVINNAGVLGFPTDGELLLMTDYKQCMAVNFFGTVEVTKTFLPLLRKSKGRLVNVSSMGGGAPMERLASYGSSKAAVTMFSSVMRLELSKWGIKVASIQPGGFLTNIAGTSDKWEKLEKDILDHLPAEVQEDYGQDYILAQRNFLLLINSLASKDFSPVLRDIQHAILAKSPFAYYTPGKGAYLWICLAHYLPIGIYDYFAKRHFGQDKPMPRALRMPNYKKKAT
The data set can be described thus: Inhibition of human 17β-HSD2 (conversion of [3H]-E2 to E1). The format is biochemical. The following applies: read-out: IC50 [nM] h17β-HSD2.

The target in data set [3] is T3, mouse 17β-HSD1 (Mus musculus, UniProt P51656).
T3 construct: made in house; host or cells: HEK293 cells, transient transfection; 1,000 g supernatant of the cell lysate
T3 sequence (P51656 1-344): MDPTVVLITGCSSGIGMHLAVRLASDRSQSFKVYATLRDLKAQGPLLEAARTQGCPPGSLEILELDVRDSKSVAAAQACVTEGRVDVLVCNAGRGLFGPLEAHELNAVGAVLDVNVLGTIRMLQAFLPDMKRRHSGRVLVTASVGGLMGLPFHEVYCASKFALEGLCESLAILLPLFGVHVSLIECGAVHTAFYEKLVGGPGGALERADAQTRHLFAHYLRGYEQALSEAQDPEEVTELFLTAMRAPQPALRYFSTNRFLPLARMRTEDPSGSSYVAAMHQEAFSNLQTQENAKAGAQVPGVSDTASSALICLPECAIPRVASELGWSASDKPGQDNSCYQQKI
The data set can be described thus: Inhibition of mouse 17β-HSD1 (recombinant, HEK293 lysate). The format is biochemical. Particulars: for inhibition at 1 µM: read-out: Inhibition @ 1 μM m17β-HSD1.

Data set [4] concerns the target T4, mouse 17β-HSD2 (Mus musculus, UniProt P51658).
T4 construct: The pellet fractions containing the microsomal 17β-HSD2 were used for the determination of E1 formation; from tissue; host or cells: mouse liver, microsomal fraction
T4 sequence (P51658 1-381): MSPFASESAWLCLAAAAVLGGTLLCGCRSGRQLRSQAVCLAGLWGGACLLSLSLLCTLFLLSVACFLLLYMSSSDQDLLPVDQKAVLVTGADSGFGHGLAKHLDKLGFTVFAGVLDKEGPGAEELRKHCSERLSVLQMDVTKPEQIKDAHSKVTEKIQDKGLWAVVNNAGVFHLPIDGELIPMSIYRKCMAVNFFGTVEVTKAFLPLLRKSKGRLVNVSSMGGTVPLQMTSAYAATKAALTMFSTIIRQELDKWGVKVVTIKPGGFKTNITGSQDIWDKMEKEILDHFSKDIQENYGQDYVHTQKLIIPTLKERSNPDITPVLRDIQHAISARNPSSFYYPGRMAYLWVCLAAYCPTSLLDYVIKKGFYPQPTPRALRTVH
The data set can be described thus: Inhibition of mouse 17β-HSD2 (liver microsomal fraction). Particulars: read-out: Inhibition @ 1 μM m17β-HSD2. In kind it is biochemical. In general terms: Liver microsomes are a subcellular fraction often used to study metabolism.

Data set [5] deals with T5, rat 17β-HSD1 (Rattus norvegicus, UniProt P51657).
T5 construct: made in house; host or cells: HEK293 cells, transient transfection; 1,000 g supernatant of the cell lysate
T5 sequence (P51657 1-344): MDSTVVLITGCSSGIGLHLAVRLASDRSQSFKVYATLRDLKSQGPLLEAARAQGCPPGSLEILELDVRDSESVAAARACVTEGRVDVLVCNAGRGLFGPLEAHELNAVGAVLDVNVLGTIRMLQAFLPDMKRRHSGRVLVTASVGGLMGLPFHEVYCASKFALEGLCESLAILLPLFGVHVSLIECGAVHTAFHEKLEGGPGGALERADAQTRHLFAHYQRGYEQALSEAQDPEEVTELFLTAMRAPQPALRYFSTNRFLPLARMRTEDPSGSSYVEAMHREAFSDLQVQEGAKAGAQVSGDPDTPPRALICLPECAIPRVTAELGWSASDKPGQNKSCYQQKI
Kind of data set: Inhibition of rat 17β-HSD1 (recombinant, HEK293 lysate). In kind it is biochemical. The following applies: read-out: % Inhibition r17β-HSD1; for inhibition at […]: Cmpd conc. 250 nM.

For data set [6], the target named is T6, rat 17β-HSD2 (Rattus norvegicus, UniProt Q62730).
T6 construct: The pellet fractions containing the microsomal 17β-HSD2 were used for the determination of E1 formation; from tissue; host or cells: rat liver, microsomal fraction
T6 sequence (Q62730 1-381): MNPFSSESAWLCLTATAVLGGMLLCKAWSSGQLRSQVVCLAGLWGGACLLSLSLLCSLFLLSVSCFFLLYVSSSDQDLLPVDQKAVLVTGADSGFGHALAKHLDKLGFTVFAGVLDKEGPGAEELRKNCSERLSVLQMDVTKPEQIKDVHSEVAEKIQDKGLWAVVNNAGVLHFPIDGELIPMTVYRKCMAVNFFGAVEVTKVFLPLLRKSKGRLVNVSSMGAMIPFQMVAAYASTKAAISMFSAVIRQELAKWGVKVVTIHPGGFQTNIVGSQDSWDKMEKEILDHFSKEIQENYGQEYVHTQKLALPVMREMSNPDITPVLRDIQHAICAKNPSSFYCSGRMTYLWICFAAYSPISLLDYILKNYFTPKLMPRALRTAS
The data set can be described thus: Inhibition of rat 17β-HSD2 (liver microsomal fraction). The format is biochemical. Particulars: read-out: % Inhibition r17β-HSD2.

The nature of data set [7]: in vitro. Particulars: human, pooled human liver S9 fraction.
For data set [8] the following is noted: human liver S9, 1 mg/mL; unit not given.
Setting [9] is: human placental cytosolic enzyme, E1 500 nM, NADH, Tables 1, 4-11.

Where two headings read alike, the source gives them in different places.

Consider `COc1c(C)cc(-c2ccc(C(=O)c3c(F)ccc(O)c3F)s2)cc1C` [Compound 16, (2,6-Difluoro-3-hydroxy-phenyl)-[5-(4-methoxy-3,5-dimethyl-phenyl)-thiophen-2-yl]-methanone], for which the IC50 was 0.9 nM in data set [1] (setting [9]) and 18 nM in data set [2]. In addition, the figures for the inhibition at 1 µM in data set [3] and in data set [4] were 59% and 55%, respectively. In addition, the inhibition at […] in data set [5] came out at 39%; in data set [6], 27%. In data set [7], the half-life at 1 µM came out at 8.5 min. Further, the CLint in data set [8] came to 81.3.
With `Cc1cc(-c2ccc(C(=O)c3c(F)ccc(O)c3F)s2)cc(C)c1O` [Compound 24, (2,6-Difluoro-3-hydroxy-phenyl)-[5-(4-hydroxy-3,5-dimethyl-phenyl)-thiophen-2-yl]-methanone], the IC50 was found to be 0.4 nM in data set [1]; 7 nM in data set [2]; 397 nM in data set [3] (recombinant mouse enzyme, E1 10 nM, NADPH, read-out: IC50 m17β-HSD1). Moreover, the inhibition at 1 µM in data set [4] came out at 76%. The inhibition at […] is 63% in data set [5] and 35% in data set [6]. The compound further had a half-life at 1 µM in data set [7] of 2.6 min. Moreover, the CLint in data set [8] is 272.7.
On to `COc1c(Cl)cc(-c2ccc(C(=O)c3c(F)ccc(O)c3F)s2)cc1CN1CCNCC1` [Compound 30, [5-(3-Chloro-4-methoxy-5-piperazin-1-ylmethyl-phenyl)-thiophen-2-yl]-(2,6-difluoro-3-hydroxy-phenyl)-methanone], for which the IC50 in data set [1] (setting [9]) turned out to be 4.7 nM; in data set [2], 26 nM. Also, the inhibition at 1 µM in data set [3] amounted to 25%; in data set [4] it was 41%. The inhibition at 0.5 µM in data set [5] (Cmpd conc. 500 nM) is 51%; in data set [6], 55%. Moreover, the half-life at 1 µM in data set [7] stood at 6.5 min. For the same compound, in data set [8], the CLint is 106.8.
